Results taken from PubChem BioAssay (NCI).
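Each compound was tested at five concentrations against cells in 96-well plates for 48 hours. The concentration for 50% growth inhibition is given as GI50. TGI denotes the concentration required for complete inhibition of growth.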

Tests used:
Test in all cases: NCI tumour cell line growth inhibition, 48 h
TK-10 renal = tested on: TK-10 renal
DU-145 prostate = tested on: DU-145 prostate
UACC-257 melanoma = tested on: UACC-257 melanoma
PC-3 prostate = tested on: PC-3 prostate
K-562 leukemia = tested on: K-562 leukemia
HS 578T breast = tested on: HS 578T breast
MDA-MB-435 = tested on: MDA-MB-435
RPMI-8226 leukemia = tested on: RPMI-8226 leukemia
HOP-92 NSCLC = tested on: HOP-92 NSCLC
NCI-H522 lung = tested on: NCI-H522 lung
T-47D breast = tested on: T-47D breast
NCI-H226 lung = tested on: NCI-H226 lung
NCI-H23 lung = tested on: NCI-H23 lung
OVCAR-5 ovarian = tested on: OVCAR-5 ovarian
SNB-19 CNS = tested on: SNB-19 CNS
MDA-MB-468 breast = tested on: MDA-MB-468 breast
OVCAR-3 ovarian = tested on: OVCAR-3 ovarian
HL-60(TB) leukemia = tested on: HL-60(TB) leukemia
UACC-62 melanoma = tested on: UACC-62 melanoma
MOLT-4 leukemia = tested on: MOLT-4 leukemia
ACHN renal = tested on: ACHN renal
MDA-MB-231 breast = tested on: MDA-MB-231 breast
SK-MEL-2 melanoma = tested on: SK-MEL-2 melanoma
SF-268 CNS = tested on: SF-268 CNS
SR leukemia = tested on: SR leukemia
CCRF-CEM leukemia = tested on: CCRF-CEM leukemia
SN12C renal = tested on: SN12C renal
LOX IMVI melanoma = tested on: LOX IMVI melanoma
OVCAR-4 ovarian = tested on: OVCAR-4 ovarian

CN1CCN(Cc2ccc(C(=O)Nc3cccc(Nc4ccc5cc(O)ccc5n4)c3)cc2C(F)(F)F)CC1
GI50 (TK-10 renal): 21.4 µM
TGI (TK-10 renal): 35.8 µM
GI50 (DU-145 prostate): 10.5 µM
TGI (DU-145 prostate): 22.3 µM
GI50 (UACC-257 melanoma): 7.35 µM
TGI (UACC-257 melanoma): 20.6 µM
GI50 (PC-3 prostate): 4.68 µM
TGI (PC-3 prostate): 20.1 µM
GI50 (K-562 leukemia): 1.88 µM
TGI (K-562 leukemia): 4.51 µM
GI50 (HS 578T breast): 4.17 µM
TGI (HS 578T breast): 35.3 µM
GI50 (MDA-MB-435): 8.53 µM
TGI (MDA-MB-435): 20.8 µM
GI50 (RPMI-8226 leukemia): 2.65 µM
TGI (RPMI-8226 leukemia): 7.1 µM
GI50 (HOP-92 NSCLC): 3.39 µM
TGI (HOP-92 NSCLC): 17 µM
GI50 (NCI-H522 lung): 4.82 µM
TGI (NCI-H522 lung): 17.5 µM
GI50 (T-47D breast): 14.6 µM
TGI (T-47D breast): 32.2 µM
GI50 (NCI-H226 lung): 16 µM
TGI (NCI-H226 lung): 33.3 µM
GI50 (NCI-H23 lung): 13.9 µM
TGI (NCI-H23 lung): 28.5 µM
GI50 (OVCAR-5 ovarian): 14.2 µM
TGI (OVCAR-5 ovarian): 27.7 µM
GI50 (SNB-19 CNS): 13.7 µM
TGI (SNB-19 CNS): 27.5 µM
GI50 (MDA-MB-468 breast): 2.23 µM
TGI (MDA-MB-468 breast): 6.47 µM
GI50 (OVCAR-3 ovarian): 11.2 µM
TGI (OVCAR-3 ovarian): 23.4 µM
GI50 (HL-60(TB) leukemia): 2.58 µM
TGI (HL-60(TB) leukemia): 4.86 µM
GI50 (UACC-62 melanoma): 15.4 µM
TGI (UACC-62 melanoma): 29.2 µM
GI50 (MOLT-4 leukemia): 3.52 µM
TGI (MOLT-4 leukemia): 9.49 µM
GI50 (ACHN renal): 7.59 µM
TGI (ACHN renal): 23.1 µM
GI50 (MDA-MB-231 breast): 2.54 µM
TGI (MDA-MB-231 breast): 7.9 µM
GI50 (SK-MEL-2 melanoma): 13.5 µM
TGI (SK-MEL-2 melanoma): 26.4 µM
GI50 (SF-268 CNS): 10.4 µM
TGI (SF-268 CNS): 23.8 µM
GI50 (SR leukemia): 2.68 µM
TGI (SR leukemia): 8.5 µM
GI50 (CCRF-CEM leukemia): 3.48 µM
TGI (CCRF-CEM leukemia): 17.2 µM
GI50 (SN12C renal): 14.1 µM
TGI (SN12C renal): 27.6 µM
GI50 (LOX IMVI melanoma): 1.73 µM
TGI (LOX IMVI melanoma): 3.19 µM
GI50 (OVCAR-4 ovarian): 11.2 µM
TGI (OVCAR-4 ovarian): 23.8 µM
